# According to PMC9220127, “Reactive Human Plasma Glutathione Peroxidase Mutant with Diselenide Bond Succeeds in Tetramer Formation” (Antioxidants, 2022):
# Target: T1, Sec−hGPx3 (human plasma glutathione peroxidase, GPx3) (Homo sapiens, UniProt P22352)
# T1 construct: mature form without signal peptide (nucleotides 1-72 removed), Sec49 inserted at UAG with tRNA-UTuT6, E. coli C321.ΔA.exp, Ni-NTA purified, unglycosylated, about 25 kDa; starts QEKSKMDCHGGIS
# T1 sequence (P22352 25-226): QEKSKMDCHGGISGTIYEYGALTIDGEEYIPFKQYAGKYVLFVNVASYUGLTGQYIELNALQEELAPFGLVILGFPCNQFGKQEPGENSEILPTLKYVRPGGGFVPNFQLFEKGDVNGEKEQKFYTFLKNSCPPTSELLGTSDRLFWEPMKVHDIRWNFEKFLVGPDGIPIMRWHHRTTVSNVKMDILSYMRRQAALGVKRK
# Experiment: glutathione reductase-coupled NADPH oxidation at […] nm
# Type: biochemical
# Conditions: 60 μM t-BuOOH, 1 mM GSH, 0.25 mM NADPH, 1 mM EDTA, pH 7.4, 37 °C; non-tetrameric recombinant enzyme
compound,measurement,value
CC(C)(C)OO [t−BuOOH],glutathione reductase-coupled NADPH oxidation at 340 nm,"GR−coupled assay with H2O2 or t−BuOOH as substrates (Figure 1B), which revealed significant GPx activity"
